Laboratory results published in the NIST ThermoML archive (doi:10.1016/j.fluid.2014.04.020).
Numbers after ± are expanded uncertainties.

Key:
[1] = Crystal; DTA
[2] = Molar enthalpy of transition or fusion; settings: Crystal; DSC

Normal melting temperature [1] | Molar enthalpy of transition or fusion [2] | SMILES
43.00 ± 0.53 °C | 8.48 ± 0.382 kcal/mol | CCCCCCCCCCCC(=O)O [dodecanoic acid]
31.10 ± 0.53 °C | 6.51 ± 0.287 kcal/mol | CCCCCCCCCC(=O)O [decanoic acid]
27.80 ± 0.53 °C | 14.7 ± 0.645 kcal/mol | CCCCCCCCCCCCCCCCCC [octadecane]
